# According to paper PMC10175918 (Communications Biology, 2023):
# Values joined by “and” are separate entries in the source; they are usually repeats but may differ in a detail not shown here. Equal values may be shown once. Read-outs that look alike come from different tables or passages of the source.
# Legend:
# UTS2R N297A = experiment: TGFα-shedding assay on UTS2R mutant N297A; format: cell-based, human; conditions: cutoff value set to −1, single replicates
# UTS2R M134T = experiment: TGFα-shedding assay on UTS2R mutant M134T; format: cell-based, human; conditions: cutoff value set to −1, single replicates
# UTS2R V159M = experiment: TGFα-shedding assay on UTS2R SNV mutant V159M; format: cell-based, human; conditions: cutoff value set to −1, single replicates
# [1] = molecular target: T1, UTS2R (β-arrestin 2 recruitment) (Homo sapiens, UniProt Q9UKP6); experiment: NanoBiT β-arrestin 2 recruitment assay for UTS2R; format: cell-based; conditions: β-arrestin 2, Supplementary Fig. 1b
# T1 construct: expressed in transfected cells; host or cells: HEK293A
# T1 sequence (Q9UKP6 whole entry): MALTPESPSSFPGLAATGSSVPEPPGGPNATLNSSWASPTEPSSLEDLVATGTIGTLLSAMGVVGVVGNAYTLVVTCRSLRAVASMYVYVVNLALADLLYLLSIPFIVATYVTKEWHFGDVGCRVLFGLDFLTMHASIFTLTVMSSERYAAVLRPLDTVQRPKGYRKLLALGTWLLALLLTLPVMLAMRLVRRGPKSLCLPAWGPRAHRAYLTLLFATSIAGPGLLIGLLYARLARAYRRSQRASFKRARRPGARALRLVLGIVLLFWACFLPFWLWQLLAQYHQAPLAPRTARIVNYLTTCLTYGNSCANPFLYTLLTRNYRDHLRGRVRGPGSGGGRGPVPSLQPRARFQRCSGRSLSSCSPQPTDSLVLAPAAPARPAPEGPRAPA
# [2] = system: human induced pluripotent stem cell-derived cardiomyocytes (hiPSC-CMs); experiment: Field potential recording (MEA) in hiPSC-CMs; format: cell-based; conditions: for prolonged FPD: 1 µM remdesivir; for FPD delay: remdesivir with UTS2R antagonist (urantide)
# Experimental: Human induced pluripotent stem cell-derived cardiomyocytes (hiPSC-CMs) were purchased from Fujifilm Cellular Dynamics, Inc. (CDI; iCell cardiomyocytes 2.0). To prepare the probe (MED-PG515A, Alpha MED Sciences), the recording areas were coated with fibronectin and dissolved in Dulbecco’s phosphate-buffered saline to create a 50 µg/mL solution. The recording area was covered with 1–2 µL fibronectin solution, and the probes were incubated at 37 °C for at least 1 h. Cells were thawed and suspended in iCell Cardiomyocytes Plating Medium (CDI) and plated onto the probes at a density of 3.5×10^4 cells in a 2 µL plating medium. The cells were incubated at 37 °C in 5% CO2 for 3–4 h before filling each probe with 1 mL iCell cardiomyocytes maintenance medium (CDI), which was used as the culture medium. The medium was changed every 2–3 days, with the cells cultured in the probes for 5–14 days to obtain a sheet of cardiomyocytes with spontaneous and synchronous electrical activity.
# FP recording was carried out[35],[60]. Before measuring FPs, iCell cardiomyocyte sheets were equilibrated for at least 4 h in a fresh culture medium using a 5% CO2 incubator at 37 °C. After equilibration, the probes were transferred to the multi-electrode array (MEA) system (MED64, Alpha med Scientific) and incubated in a humidified 5% CO2 atmosphere. The stability and constancy of the waveforms were confirmed by monitoring the signals for at least 30 min. Once the FPs reached a stable state, they were recorded for 10 min at the baseline and then 24, 48, and 72 h after drug treatment. The stock solutions of drugs were prepared in dimethyl sulfoxide (DMSO) or distilled water at a 1000-fold target concentration. The stock solution was diluted in a culture medium to a final concentration of 0.1% DMSO.
# The FP duration (FPD) was defined as the duration from the first to the second peak in FP[35]. The FPD was corrected for the beat rate (inter-spike interval (ISI)) with Fridericia’s formula (Eq. 1), which was the primary method of correction in this study:1 (FPDcF=FPD/(ISI/1000)^1/3).
# [3] = system: mitochondrial respiratory complex proteins; experiment: Western blot of mitochondrial respiratory complex proteins in UTS2R-transfected HEK293A cells; format: cell-based, human; conditions: 10 μM remdesivir, 48 h
# [4] = system: neonatal rat cardiomyocytes (NRCMs); conditions: for Contraction [a.u.]: 48 h
smiles,measurement,setting,value
CCC(CC)COC(=O)[C@H](C)N[P@](=O)(OC[C@H]1O[C@@](C#N)(c2ccc3c(N)ncnn23)[C@H](O)[C@@H]1O)Oc1ccccc1 [remdesivir],⊿pEC50 compared to WT UTS2R,UTS2R N297A,-1 and -0.7407
same,⊿pEC50 compared to WT UTS2R,UTS2R M134T,-1
same,⊿pEC50 compared to WT UTS2R,UTS2R V159M,> 0.3 and 0.3136 and 0.3109 and 0.3308 and 0.4558
same,β-arrestin recruitment response,[1],failed to induce a β-arrestin recruitment response
same,prolonged FPD,[2]; 24 h,1.32 ± 1.38%
same,prolonged FPD,[2]; 48 h,5.60 ± 1.60%
same,prolonged FPD,[2]; 72 h,15.57 ± 3.49%
same,FPD delay,[2]; 24 h,−1.71 ± 1.60%
same,FPD delay,[2]; 48 h,−0.61 ± 0.11%
same,steady-state levels of mitochondrial respiratory complex proteins,[3],did not affect
same,Contraction [a.u.],"[4]; Fig.4a, 1 µM remdesivir, pacing, replicates",0.1429 a.u. and 0.1533 a.u. and 0.1024 a.u.
same,Contraction [a.u.],"[4]; Fig.4a, urantide (100 nM) + 1 µM remdesivir",0.2641 a.u. and 0.2651 a.u. and 0.2715 a.u.
same,Contraction [a.u.],"[4]; Fig.4b, 1 µM remdesivir, pacing, replicates",0.1019 a.u. and 0.1158 a.u. and 0.1194 a.u.
same,Contraction [a.u.],"[4]; Fig.4b, PTX (150 ng/mL) + 1 µM remdesivir",0.3302 a.u. and 0.3344 a.u. and 0.3245 a.u.
same,Contraction [a.u.],"[4]; Fig.4b, YM-254890 (1 μM) + 1 µM remdesivir",0.108 a.u. and 0.1376 a.u. and 0.1361 a.u.
same,contractility of NRCMs,"[4]; chronic remdesivir treatment, constant pacing",reduced contractility
